What was measured:
[1] = AUClast in rat plasma at 5 mg/kg, po measured up to 24 hrs by LC-MS/MS analysis; type: ADME, organism-based
[2] = biological target: hERG (KCNH2) (Homo sapiens, UniProt Q12809); assay: Inhibition of human ERG expressed in CHO cells at 30 uM by manual patch clamp assay relative to control; type: toxicity, cell-based; details: CHO cells expressing human ERG
[3] = Oral bioavailability in rat plasma at 5 mg/kg measured up to 24 hrs by LC-MS/MS analysis; type: ADME, organism-based
[4] = Cmax in rat plasma at 5 mg/kg, po measured up to 24 hrs by LC-MS/MS analysis; type: ADME, organism-based
[5] = Half life in rat plasma at 5 mg/kg, po measured up to 24 hrs by LC-MS/MS analysis; type: ADME, organism-based
[6] = Clearance in rat plasma at 5 mg/kg, po measured up to 24 hrs by LC-MS/MS analysis; type: ADME, organism-based
[7] = system: MV4-11; assay: cells; details: Homo sapiens, MV4-11, 72 h
Description: Antiproliferative activity against human MV4-11 cells assessed as inhibition of cell growth incubated for 72 hrs by celltiter-glo luminescent cell viability assay

[8] = system: MOLM-13; assay: Antitumor activity against human MOLM-13 cells xenografted in NOD/SCID mouse model assessed as tumor growth inhibition at 50 mg/kg/day, po by caliper analysis relative to control; type: functional; details: read-out: TGI
[9] = system: BaF3; assay: Antiproliferative activity against mouse BaF3 cells harbouring FLT3-ITD-D835V mutant assessed as inhibition of cell growth incubated for 72 hrs by celltiter-glo luminescent cell viability assay; type: functional, cell-based; details: BaF3, 72 h
[10] = system: BaF3; assay: cells; details: Mus musculus, BaF3, 72 h
Description: Antiproliferative activity against mouse BaF3 cells harbouring FLT3-D83HY mutant assessed as inhibition of cell growth incubated for 72 hrs by celltiter-glo luminescent cell viability assay

[11] = system: BaF3; assay: Antiproliferative activity against mouse BaF3 cells harbouring FLT3-ITD-D835I mutant assessed as inhibition of cell growth incubated for 72 hrs by celltiter-glo luminescent cell viability assay; type: functional, cell-based; details: BaF3, 72 h
[12] = system: BaF3; assay: cells; details: Mus musculus, BaF3, 72 h; remark: listed apart in the source
[13] = system: BaF3; assay: Antiproliferative activity against mouse BaF3 cells harbouring FLT3-ITD-Y842R mutant assessed as inhibition of cell growth incubated for 72 hrs by celltiter-glo luminescent cell viability assay; type: functional, cell-based; details: BaF3, 72 h
[14] = system: BaF3; assay: cells; details: Mus musculus, BaF3, 72 h; remark: listed apart in the source
[15] = system: BaF3; assay: Antiproliferative activity against mouse BaF3 cells harbouring FLT3-ITD-N676D mutant assessed as inhibition of cell growth incubated for 72 hrs by celltiter-glo luminescent cell viability assay; type: functional, cell-based; details: BaF3, 72 h
[16] = system: BaF3; assay: Antiproliferative activity against mouse BaF3 cells harbouring FLT3-ITD assessed as inhibition of cell growth incubated for 72 hrs by celltiter-glo luminescent cell viability assay; type: functional, cell-based; details: BaF3, 72 h
[17] = system: BaF3; assay: Antiproliferative activity against mouse BaF3 cells harbouring FLT3-D835Y mutant assessed as inhibition of cell growth incubated for 72 hrs by celltiter-glo luminescent cell viability assay; type: functional, cell-based; details: BaF3, 72 h
[18] = system: BaF3; assay: cells; details: Mus musculus, BaF3, 72 h; remark: listed apart in the source
[19] = Antitumor activity against human […] cells harbouring FLT3-ITD xenografted in NOD/SCID mouse model assessed as tumor regression rate at 20 mg/kg/day, po measured for 8 days by caliper analysis relative to control; type: functional, MV4-11; details: time 8 day
[20] = system: BaF3; assay: Antiproliferative activity against mouse BaF3 cells harbouring FLT3-D835V mutant assessed as inhibition of cell growth incubated for 72 hrs by celltiter-glo luminescent cell viability assay; type: functional, cell-based; details: BaF3, 72 h
[21] = system: BaF3; assay: Antiproliferative activity against wild type mouse BaF3 cells assessed as inhibition of cell growth incubated for 72 hrs by celltiter-glo luminescent cell viability assay; type: functional, cell-based; details: BaF3, 72 h
[22] = system: BaF3; assay: Antiproliferative activity against mouse BaF3 cells harbouring FLT3-ITD-Y842H mutant assessed as inhibition of cell growth incubated for 72 hrs by celltiter-glo luminescent cell viability assay; type: functional, cell-based; details: BaF3, 72 h
[23] = system: BaF3; assay: Antiproliferative activity against mouse BaF3 cells harbouring FLT3-ITD-D835Y mutant assessed as inhibition of cell growth incubated for 72 hrs by celltiter-glo luminescent cell viability assay; type: functional, cell-based; details: BaF3, 72 h
[24] = system: BaF3; assay: cells; details: Mus musculus, BaF3, 72 h; remark: listed apart in the source
[25] = system: BaF3; assay: cells; details: Mus musculus, BaF3, 72 h; remark: listed apart in the source
[26] = system: BaF3; assay: Antiproliferative activity against mouse BaF3 cells harbouring FLT3-ITD-F691I mutant assessed as inhibition of cell growth incubated for 72 hrs by celltiter-glo luminescent cell viability assay; type: functional, cell-based; details: BaF3, 72 h
[27] = system: BaF3; assay: Antiproliferative activity against mouse BaF3 cells harbouring FLT3-ITD-F691L mutant assessed as inhibition of cell growth incubated for 72 hrs by celltiter-glo luminescent cell viability assay; type: functional, cell-based; details: BaF3, 72 h

Chain of hERG (KCNH2) (Q12809 whole entry): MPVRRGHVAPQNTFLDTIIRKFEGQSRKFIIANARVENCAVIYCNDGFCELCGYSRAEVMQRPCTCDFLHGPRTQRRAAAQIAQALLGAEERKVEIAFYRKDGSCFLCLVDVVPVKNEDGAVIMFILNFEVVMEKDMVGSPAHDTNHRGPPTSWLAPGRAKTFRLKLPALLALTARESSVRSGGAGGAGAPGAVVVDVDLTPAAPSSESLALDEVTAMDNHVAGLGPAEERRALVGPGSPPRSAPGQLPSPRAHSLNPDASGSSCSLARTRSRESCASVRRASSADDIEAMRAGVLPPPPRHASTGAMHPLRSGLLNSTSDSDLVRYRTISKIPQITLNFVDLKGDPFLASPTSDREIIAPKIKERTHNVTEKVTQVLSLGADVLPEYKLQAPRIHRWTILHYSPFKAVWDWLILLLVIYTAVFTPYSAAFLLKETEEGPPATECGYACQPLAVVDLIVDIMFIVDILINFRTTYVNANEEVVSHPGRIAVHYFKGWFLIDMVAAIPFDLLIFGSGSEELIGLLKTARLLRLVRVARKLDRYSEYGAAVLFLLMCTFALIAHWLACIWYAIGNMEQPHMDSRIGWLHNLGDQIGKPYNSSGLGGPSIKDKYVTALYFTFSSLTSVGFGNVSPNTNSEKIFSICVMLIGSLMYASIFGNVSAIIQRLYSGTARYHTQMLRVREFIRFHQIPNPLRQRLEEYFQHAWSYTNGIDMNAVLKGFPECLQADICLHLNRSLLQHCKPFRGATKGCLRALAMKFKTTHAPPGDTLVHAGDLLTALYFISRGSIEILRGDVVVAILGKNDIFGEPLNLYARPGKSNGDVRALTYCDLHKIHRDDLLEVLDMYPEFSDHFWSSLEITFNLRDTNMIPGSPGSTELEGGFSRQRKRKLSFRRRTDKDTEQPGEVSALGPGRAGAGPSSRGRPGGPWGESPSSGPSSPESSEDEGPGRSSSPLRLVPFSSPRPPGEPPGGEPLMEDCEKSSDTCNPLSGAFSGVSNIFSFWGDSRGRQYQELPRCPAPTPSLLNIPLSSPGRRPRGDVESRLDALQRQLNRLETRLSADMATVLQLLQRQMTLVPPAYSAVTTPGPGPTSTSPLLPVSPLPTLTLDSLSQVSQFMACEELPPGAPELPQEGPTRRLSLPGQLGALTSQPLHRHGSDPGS

Row | SMILES | AUC(0-t) at 24 h [1] [µg·h/mL] | bioavailability [3] [%] | Cmax [4] [µg/mL] | half-life [5] [h] | CL/F [6] [L/h/kg] | IC50 [7] [nM] | also measured
1 | CC(C)(C)c1cc(NC(=O)Nc2ccc(C#Cc3ccc(OCCCN4CCOCC4)cc3F)cc2)no1 | 11.3 | 69.3 | 1.37 | 5.86 | 0.29 | 5.2 | inhibition at 30 µM [2]: 36.3%
2 | CC(C)(C)c1cc(NC(=O)Nc2ccc(C#Cc3cnn4c(OCCCN5CCOCC5)ccnc34)cc2)no1 | – | – | – | – | – | 1.9 | –
3 | CC(C)(C)c1cc(NC(=O)Nc2ccc(C#Cc3ccc(OCCCN4CCOCC4)c(O)c3)cc2)no1 | – | – | – | – | – | 0.9 | –
4 | CN1CCN(CCCOc2ccc(C#Cc3ccc(NC(=O)Nc4cc(C(C)(C)C)on4)cc3)cc2)CC1 | 0.756 | 42 | 0.1 | 5.15 | 2.69 | 2.4 | –
5 | COc1cc(C#Cc2ccc(NC(=O)Nc3cc(C(C)(C)C)on3)cc2)ccc1OCCCN1CCOCC1 | 1.27 | 40.8 | 0.194 | 3.55 | 1.61 | 0.8 | –
6 | CN(C)C1CCN(CCCOc2ccc(C#Cc3ccc(NC(=O)Nc4cc(C(C)(C)C)on4)cc3)cc2)CC1 | – | – | – | – | – | 8 | –
7 | CN1CCN(CCOc2ccc(C#Cc3ccc(NC(=O)Nc4cc(C(C)(C)C)on4)cc3)cc2)CC1 | 0.534 | 48.4 | 0.133 | 2.06 | 4.09 | 1.6 | –
8 | CC(C)(C)c1cc(NC(=O)Nc2ccc(C#Cc3ccc(OCCCN4CCOCC4)cc3)nc2)no1 | – | – | – | – | – | > 1000 | –
9 | CN(C)C1CCN(CCOc2ccc(C#Cc3ccc(NC(=O)Nc4cc(C(C)(C)C)on4)cc3)cc2)CC1 | – | – | – | – | – | 34.4 | –
10 | CC(C)(C)c1cc(NC(=O)Nc2ccc(C#Cc3ccc(OCCCN4CCOCC4)c(C(F)(F)F)c3)cc2)no1 | – | – | – | – | – | 17.7 | –
11 | CC(C)(C)c1cc(NC(=O)Nc2ccc(C#Cc3ccc(OCCCN4CCOCC4)c(Cl)c3)cc2)no1 | – | – | – | – | – | 9.8 | –
12 | Nc1ccn([C@@H]2O[C@H](CO)[C@@H](O)[C@@H]2O)c(=O)n1 [CYTARABINE] | – | – | – | – | – | – | inhibition in vivo at 50 mg/kg/day [8]: 36%
13 | CC(C)(C)c1cc(NC(=O)Nc2ccc(C#Cc3ccc(OCCCN4CCOCC4)cc3O)cc2)no1 | – | – | – | – | – | 25.5 | –
14 | CC(C)(C)c1cc(NC(=O)Nc2ccc(C#Cc3ccc(OCCN4CCOCC4)cc3)cc2)no1 | 1.79 | 49.2 | 0.522 | 4.84 | 1.37 | 1.4 | –
15 | CC(C)(C)c1cc(NC(=O)Nc2ccc(C#Cc3ccc(OCCCN4C[C@@H]5OCCO[C@@H]5C4)cc3)cc2)no1 | – | – | – | – | – | 3.1 | –
16 | CC(C)(C)c1cc(NC(=O)Nc2ccc(C#Cc3ccc(OCCCN4CCOCC4)cc3)cc2C#N)no1 | – | – | – | – | – | > 1000 | –
17 | CC(C)(C)c1cc(NC(=O)Nc2ccc(C#Cc3ccc(OCCCN4CCC5(COC5)C4)cc3)cc2)no1 | – | – | – | – | – | 13.8 | –
18 | CC(C)(C)c1cc(NC(=O)Nc2ccc(C#Cc3ccc(OCCCN4CCOCC4)c(F)c3)cc2)no1 | – | – | – | – | – | 4.6 | –
19 | CC(C)(C)c1cc(NC(=O)Nc2ccc(C#Cc3ccc(OCCCN4CCOCC4)cc3Cl)cc2)no1 | – | – | – | – | – | 426 | –
20 | COc1cc(C#Cc2ccc(OCCCN3CCOCC3)cc2)ccc1NC(=O)Nc1cc(C(C)(C)C)on1 | – | – | – | – | – | 551 | –
21 | CC(C)(C)c1cc(NC(=O)Nc2ccc(-c3cn4c(n3)sc3cc(OCCN5CCOCC5)ccc34)cc2)no1 [QUIZARTINIB] | 6.32 | 57.6 | 0.741 | 5.22 | 0.44 | 0.9 | IC50 [9]: 112 nM; IC50 [10]: 7.1 nM; IC50 [11]: 280 nM; IC50 [12]: 4.1 nM; IC50 [13]: 20.8 nM; IC50 [14]: 1.6 nM; IC50 [15]: 5.5 nM; IC50 [16]: 0.8 nM; IC50 [17]: 3.6 nM; IC50 [18]: 73.1 nM; Activity [19]: 88.6%; IC50 [20]: 28.7 nM; IC50 [21]: > 1000 nM; IC50 [22]: 28.8 nM; IC50 [23]: 36 nM; IC50 [24]: 3.1 nM; IC50 [25]: 23.2 nM; IC50 [26]: 136 nM; IC50 [27]: 102 nM
22 | CC(C)(C)c1cc(NC(=O)Nc2ccc(C#Cc3ccc(OCCN4C[C@@H]5OCCO[C@@H]5C4)cc3)cc2)no1 | 6.77 | 63.6 | 0.862 | 3.9 | 0.467 | 1.1 | –
23 | CC(C)(C)c1cc(NC(=O)Nc2ccc(C#Cc3ccc(OCCCN4CCOCC4)cc3)cc2F)no1 | – | – | – | – | – | 4.8 | –
